These results are taken from ChEMBL document CHEMBL1201862, “PubChem BioAssay data set” (2004).

Each structure is given as a SMILES string.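 Five concentrations, 48 hours, 96-well plates. GI50: concentration for 50% inhibition of growth.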 Activity calls are given as the source filed them. No stated cut-off is given here; in the data, active = GI50 up to about 1.1 µM and inactive = higher.

Test systems include MOLT-4; OVCAR-5; SK-MEL-2; COLO 205; SK-MEL-28; NCI-H226; HOP-92; HT-29; Hs-578T; UO-31; MCF7; SNB-75; RPMI-8226; Malme-3M; CCRF-CEM; HOP-62; PC-3; A498; SW-620; NCI-H522.
What all share (test): NCI anticancer screen, dose series, 48 h

Take `COc1ccc(/C=C/C=C2C(=O)NC(=S)NC2=O)cc1`: the GI50 with MOLT-4 is 2.64 µM (inactive); in the assay on OVCAR-5, 21 µM (inactive); in the assay with SK-MEL-2, 16.1 µM (inactive); in the assay on COLO 205, 3.83 µM (inactive); with SK-MEL-28, 1.76 µM (inactive); with NCI-H226 it was 15.7 µM (inactive). Also, the GI50 is 12.8 µM (inactive) in the assay on HOP-92; 5.77 µM (inactive) in the assay with HT-29; 6.44 µM (inactive) in the assay with Hs-578T; 7.45 µM (inactive) with UO-31; 7.74 µM (inactive) with MCF7; 17.7 µM (inactive) in the assay with SNB-75. For the same molecule, the GI50 with RPMI-8226 is 4.91 µM (inactive); in the assay with Malme-3M it was 3.34 µM (inactive); with CCRF-CEM, 1.59 µM (inactive); in the assay with HOP-62, 19.4 µM (inactive); in the assay with PC-3 it was 12.6 µM (inactive); in the assay with A498 it was 33.9 µM (inactive). Besides, in the assay on SW-620, the GI50 is 1.78 µM (inactive).
In the case of `Cc1ccsc1/C=N/Nc1cc(C)c2ccccc2n1`, the GI50 in the assay on MOLT-4 is 9.23 µM (inactive); with OVCAR-5 it was 24.3 µM (inactive); in the assay with SK-MEL-2, 17.9 µM (inactive); with COLO 205, 5.92 µM (inactive); with SK-MEL-28, 14.6 µM (inactive); with NCI-H226, 16 µM (inactive). Also, the GI50 with HOP-92 was 13.7 µM (inactive); with HT-29, 3.61 µM (inactive); in the assay with Hs-578T it was 16.7 µM (inactive); in the assay with UO-31, 10.4 µM (inactive); in the assay with MCF7, 15.6 µM (inactive); with SNB-75 it was 13.8 µM (inactive). Also, the GI50 in the assay with RPMI-8226 was 3.28 µM (inactive); with CCRF-CEM it was 17.1 µM (inactive); in the assay on HOP-62 it was 22.3 µM (inactive); with PC-3, 14.7 µM (inactive); in the assay on A498, 10.4 µM (inactive); with SW-620, 17.2 µM (inactive).
As to `COc1cc(O)c2c(=O)c3cccc(C)c3[nH]c2c1`, the GI50 is 3.99 µM (inactive) in the assay on MOLT-4; > 10 µM (inactive) in the assay on OVCAR-5; > 10 µM (inactive) with SK-MEL-2; > 10 µM (inactive) in the assay on COLO 205; > 10 µM (inactive) with SK-MEL-28; > 10 µM (inactive) with NCI-H226. Further, the GI50 in the assay on HT-29 is > 10 µM (inactive); in the assay on Hs-578T it was > 10 µM (inactive); in the assay on MCF7, > 10 µM (inactive); in the assay with SNB-75, 6.62 µM (inactive); in the assay on RPMI-8226, > 10 µM (inactive); in the assay on Malme-3M, > 10 µM (inactive). Moreover, the GI50 was 7.6 µM (inactive) in the assay with CCRF-CEM; > 10 µM (inactive) in the assay with HOP-62; > 10 µM (inactive) in the assay with PC-3; 9.33 µM (inactive) with A498; > 10 µM (inactive) with SW-620; > 10 µM (inactive) in the assay on NCI-H522.
On to `CCOC(=O)/C(C(=O)c1ccc[nH]1)=C1/CCCN1C`, for which the GI50 is 49.5 µM (inactive) in the assay on MOLT-4; > 100 µM (inactive) with OVCAR-5; > 100 µM (inactive) in the assay on SK-MEL-2; > 100 µM (inactive) in the assay with COLO 205; > 100 µM (inactive) with SK-MEL-28; > 100 µM (inactive) in the assay with NCI-H226. The GI50 with HT-29, with Hs-578T, in the assay with UO-31, in the assay on MCF7, with SNB-75 and with RPMI-8226 was > 100 µM (inactive) each time. Further, the GI50 in the assay with Malme-3M, with CCRF-CEM, in the assay on HOP-62, in the assay with PC-3, with A498 and in the assay with SW-620 was > 100 µM (inactive) each time.
As to `Nc1nnc2n1C(=O)C(C1(C3=Nc4nnc(N)n4C3=O)Cc3ccccc3C1=O)=N2`, the GI50 in the assay with MOLT-4, in the assay with OVCAR-5, in the assay with COLO 205, in the assay with SK-MEL-28, in the assay with NCI-H226 and with HOP-92 was > 100 µM (inactive) each time. Besides, the GI50 in the assay on HT-29 is > 100 µM (inactive); in the assay with Hs-578T, > 100 µM (inactive); in the assay on UO-31, > 100 µM (inactive); in the assay on MCF7, 40.7 µM (inactive); with SNB-75, > 100 µM (inactive); with RPMI-8226, > 100 µM (inactive). Besides, the GI50 in the assay with Malme-3M is > 100 µM (inactive); in the assay on CCRF-CEM, 48 µM (inactive); in the assay on HOP-62, > 100 µM (inactive); in the assay with PC-3, > 100 µM (inactive); in the assay on A498, 0.0205 µM (active); in the assay with SW-620 it was > 100 µM (inactive).
`O=[N+]([O-])c1cc2c([N+](=O)[O-])cccc2o1`: the GI50 in the assay with SK-MEL-2 was 9.16 µM (inactive); in the assay with COLO 205 it was 4.57 µM (inactive); in the assay with SK-MEL-28, 3.15 µM (inactive); in the assay on NCI-H226, 12.6 µM (inactive); with HOP-92 it was 17.4 µM (inactive); with HT-29, 4.09 µM (inactive). The GI50 with Hs-578T was 13.1 µM (inactive); with UO-31, 1.88 µM (inactive); in the assay on MCF7, 3.5 µM (inactive); with RPMI-8226, 2.85 µM (inactive); in the assay with Malme-3M, 13.6 µM (inactive); in the assay with CCRF-CEM, 2.48 µM (inactive). The GI50 is 18.5 µM (inactive) with HOP-62; 12.4 µM (inactive) in the assay with PC-3; 22.4 µM (inactive) in the assay on A498; 2.86 µM (inactive) in the assay on SW-620; 0.479 µM (active) with NCI-H522.
As for `CCN(C(=O)/C=C/c1ccco1)c1ccccc1`, the GI50 was 53.8 µM (inactive) with MOLT-4; > 100 µM (inactive) with OVCAR-5; > 100 µM (inactive) with SK-MEL-2; > 100 µM (inactive) with COLO 205; > 100 µM (inactive) with SK-MEL-28; > 100 µM (inactive) in the assay on NCI-H226. The GI50 with HOP-92, in the assay with HT-29, with Hs-578T, in the assay on UO-31, in the assay on MCF7 and with SNB-75 was > 100 µM (inactive) throughout. Further, the GI50 was 75.2 µM (inactive) with RPMI-8226; > 100 µM (inactive) in the assay on CCRF-CEM; > 100 µM (inactive) with HOP-62; > 100 µM (inactive) in the assay on PC-3; > 100 µM (inactive) in the assay with A498; > 100 µM (inactive) in the assay with SW-620. Besides, the GI50 with NCI-H522 is > 100 µM (inactive).
Regarding `C[C@@H]1[C@H](O)CC2=C(CC[C@@H](O)C2(C)C)[C@@]1(CO)CCc1ccoc1`, the GI50 in the assay on MOLT-4 was 34.7 µM (inactive); in the assay with OVCAR-5, > 50 µM (inactive); in the assay on SK-MEL-2 it was > 50 µM (inactive); in the assay with COLO 205, > 50 µM (inactive); in the assay on SK-MEL-28, > 50 µM (inactive); with NCI-H226, > 50 µM (inactive). Also, the GI50 in the assay on HOP-92 was > 50 µM (inactive); with HT-29 it was > 50 µM (inactive); with Hs-578T, > 50 µM (inactive); with UO-31, > 50 µM (inactive); with MCF7, > 50 µM (inactive); in the assay on SNB-75 it was 31.8 µM (inactive). The GI50 in the assay on Malme-3M is > 50 µM (inactive); with CCRF-CEM, 29.4 µM (inactive); in the assay on HOP-62, > 50 µM (inactive); in the assay on PC-3, 46.3 µM (inactive); in the assay on A498 it was > 50 µM (inactive); with SW-620 it was > 50 µM (inactive).
As for `COc1ccc(Cn2nc(OCc3ccccn3)c3cc([N+](=O)[O-])ccc32)cc1`, the GI50 in the assay with MOLT-4 is > 100 µM (inactive); in the assay with OVCAR-5, > 100 µM (inactive); with SK-MEL-2, 49.5 µM (inactive); with SK-MEL-28, > 100 µM (inactive); in the assay with NCI-H226, > 100 µM (inactive); in the assay with HT-29, > 100 µM (inactive). The GI50 with Hs-578T, in the assay on UO-31, with MCF7, in the assay on RPMI-8226, in the assay on Malme-3M and in the assay with CCRF-CEM was > 100 µM (inactive) throughout. For the same molecule, the GI50 is 28.1 µM (inactive) in the assay on HOP-62; > 100 µM (inactive) in the assay on PC-3; > 100 µM (inactive) in the assay with A498; > 100 µM (inactive) in the assay on SW-620; > 100 µM (inactive) with NCI-H522.
For the molecule `CCOC(=O)C1C(c2ccc(OC)cc2)c2c(nn(-c3ccccc3)c2O)CC1(C)O` (stereo not given), the GI50 was 0.596 µM (active) in the assay with MOLT-4; > 100 µM (inactive) in the assay with OVCAR-5; 93.8 µM (inactive) in the assay with SK-MEL-2; 16 µM (inactive) in the assay with COLO 205; 37.5 µM (inactive) in the assay on SK-MEL-28; 92.3 µM (inactive) in the assay on HOP-92. The GI50 in the assay on HT-29 was 28 µM (inactive); in the assay on Hs-578T, > 100 µM (inactive); in the assay on UO-31 it was 11 µM (inactive); in the assay on MCF7 it was 33.6 µM (inactive); in the assay with SNB-75, > 100 µM (inactive); with RPMI-8226, 2.29 µM (inactive). Also, the GI50 in the assay on Malme-3M is > 100 µM (inactive); in the assay on CCRF-CEM it was 7.1 µM (inactive); in the assay with HOP-62, > 100 µM (inactive); with PC-3, 7.5 µM (inactive); in the assay on A498, > 100 µM (inactive); in the assay with SW-620, 18.5 µM (inactive). Further, the GI50 in the assay on NCI-H522 was 50 µM (inactive).
For `O=C(NCCCCNCCCNC(=O)c1ccccc1)c1ccccc1`, the GI50 with MOLT-4, in the assay with OVCAR-5, in the assay on SK-MEL-2, in the assay with COLO 205, in the assay on SK-MEL-28 and in the assay on NCI-H226 was > 100 µM (inactive) in each case. The GI50 with HOP-92, in the assay on HT-29, in the assay on Hs-578T, with UO-31, with MCF7 and in the assay with SNB-75 was > 100 µM (inactive) in each case. Besides, the GI50 in the assay with RPMI-8226, in the assay on CCRF-CEM, in the assay with HOP-62, in the assay on PC-3, in the assay with A498 and in the assay on SW-620 was > 100 µM (inactive) each time. Also, the GI50 with NCI-H522 was > 100 µM (inactive).
